This passage reports pKa, solubility and Nanoparticle size results from patent publication US12171870B2, “Contact lens packaging solutions” (ALCON INC., priority 2020, dated 2024).

For data set [1] the following is noted: DMPC phosphate group; cited from earlier work.
A short description of data set [2]: Dissolution of DMPC in HCl aqueous solution and nanoparticle formation by stirring. In kind it is physicochemical. An excerpt:
The present invention is partly based on the discovery that phosphatidylcholine nanoparticles can be formed in an aqueous solution free of an organic solvent by high energy treating the mixture of water insoluble phosphatidylcholine and an aqueous solution having a pH from 1 to 4. The present invention is also partly based on the discovery that at pH lower than pKa, the negative charge of phosphate group in phosphatidylcholine is neutralized through the protonation, which break static stacking in phosphatidylcholine crystal and improve solubility of phosphatidylcholine in an aqueous solution (scheme 1). For example, according to the experimental results of the present application, DMPC is dissolved (pKa 1.86) into 137 mM of HCl aqueous solution up to 10 mg/mL and induced aggregate and formed nanoparticles (˜30 nm) by stirring at room temperature for about 10 hours. After neutralized by NaOH, the nanoparticles were diluted to certain concentration in packing saline.
Method: DMPC was added into 135 mM of HCl and stirred overnight at room temperature to form nanoparticles (4-440 mg/mL). Then, pH was adjusted to 6-8 by 50% NaOH. The solution was diluted by PBS or Saline 14 to get certain concentration (0.1-2 mg/mL).

Each structure is given as a SMILES string.

`CCCCCCCCCCCCCC(=O)OC[C@H](COP(=O)([O-])OCC[N+](C)(C)C)OC(=O)CCCCCCCCCCCCC` [DMPC, Dimyristoylphosphatidylcholine]: the pKa (as a rule, the negative logarithm of the acid dissociation constant) in data set [1] is listed as 1.86. Besides, in data set [2] (137 mM HCl aqueous solution, read-out: DMPC dissolved into HCl aqueous solution (solubility)), the solubility (in general, the concentration that dissolves in the medium under given conditions) was at most 10000 µg/mL. The Nanoparticle size in data set [2] (formed by stirring at room temperature for about 10 hours in 137 mM HCl) is given as about 30 nm.
